Activity calls are given as the source filed them. How the calls were made is not given here.
Test system: CCRIS mutagenicity, Ames/micronucleus/aberration tests
Test: CCRIS mutagenicity studies
[1] = Test System: AMES SALMONELLA TYPHIMURIUM, Strain/Indicator: TA98, Metabolic Activation: NONE, Method: PREINCUBATION
[2] = Test System: AMES SALMONELLA TYPHIMURIUM, Strain/Indicator: TA98, Metabolic Activation: RAT, LIVER, S-9, AROCLOR 1254, Method: STANDARD PLATE
[3] = Test System: AMES SALMONELLA TYPHIMURIUM, Strain/Indicator: TA100, Metabolic Activation: NONE, Method: PREINCUBATION
[4] = Test System: AMES SALMONELLA TYPHIMURIUM, Strain/Indicator: TA100, Metabolic Activation: RAT, LIVER, S-9, AROCLOR 1254, Method: STANDARD PLATE
[5] = Test System: AMES SALMONELLA TYPHIMURIUM, Strain/Indicator: TA1535, Metabolic Activation: NONE, Method: PREINCUBATION
[6] = Test System: MOUSE LYMPHOMA, Strain/Indicator: L5178Y (TK+/TK-), Metabolic Activation: NONE, Method: SUSPENSION/PLATE
[7] = Test System: AMES SALMONELLA TYPHIMURIUM, Strain/Indicator: TA98, Metabolic Activation: NONE, Method: STANDARD PLATE

Measured: mutagenic call

CC(=O)c1c(C)c([N+](=O)[O-])c(C(C)(C)C)c([N+](=O)[O-])c1C
inactive: Test System: AMES SALMONELLA TYPHIMURIUM, Strain/Indicator: TA97, Metabolic Activation: HAMSTER, LIVER, S-9, AROCLOR 1254 (10 OR 30%), Method: PREINCUBATION inactive; negative | Test System: AMES SALMONELLA TYPHIMURIUM, Strain/Indicator: TA97, Metabolic Activation: NONE, Method: PREINCUBATION inactive; negative | Test System: AMES SALMONELLA TYPHIMURIUM, Strain/Indicator: TA97, Metabolic Activation: RAT, LIVER, S-9, AROCLOR 1254 (10 OR 30%), Method: PREINCUBATION inactive; negative | Test System: AMES SALMONELLA TYPHIMURIUM, Strain/Indicator: TA98, Metabolic Activation: HAMSTER, LIVER, S-9, AROCLOR 1254 (10 OR 30%), Method: PREINCUBATION inactive; negative | [1] inactive; negative | Test System: AMES SALMONELLA TYPHIMURIUM, Strain/Indicator: TA98, Metabolic Activation: RAT, LIVER, S-9, AROCLOR 1254 (10 OR 30%), Method: PREINCUBATION inactive; negative | Test System: AMES SALMONELLA TYPHIMURIUM, Strain/Indicator: TA98, Metabolic Activation: RAT, LIVER, S-9, AROCLOR 1254, Method: PREINCUBATION inactive; negative | [2] inactive; negative | Test System: AMES SALMONELLA TYPHIMURIUM, Strain/Indicator: TA100, Metabolic Activation: HAMSTER, LIVER, S-9, AROCLOR 1254 (10 OR 30%), Method: PREINCUBATION inactive; negative | [3] inactive; negative | Test System: AMES SALMONELLA TYPHIMURIUM, Strain/Indicator: TA100, Metabolic Activation: RAT, LIVER, S-9, AROCLOR 1254 (10 OR 30%), Method: PREINCUBATION inactive; negative | Test System: AMES SALMONELLA TYPHIMURIUM, Strain/Indicator: TA100, Metabolic Activation: RAT, LIVER, S-9, AROCLOR 1254, Method: PREINCUBATION inactive; negative | [4] inactive; negative | Test System: AMES SALMONELLA TYPHIMURIUM, Strain/Indicator: TA1535, Metabolic Activation: HAMSTER, LIVER, S-9, AROCLOR 1254 (10 OR 30%), Method: PREINCUBATION inactive; negative | [5] inactive; negative | Test System: AMES SALMONELLA TYPHIMURIUM, Strain/Indicator: TA1535, Metabolic Activation: RAT, LIVER, S-9, AROCLOR 1254 (10 OR 30%), Method: PREINCUBATION inactive; negative | [6] inactive; negative | Test System: MOUSE LYMPHOMA, Strain/Indicator: L5178Y (TK+/TK-), Metabolic Activation: RAT, LIVER, S-9, AROCLOR 1242 AND AROCLOR 1254 (2:1), Method: SUSPENSION/PLATE inactive; negative | Test System: UDS RAT PRIMARY HEPATOCYTES, Strain/Indicator: THY INCORP, Metabolic Activation: NONE inactive; negative

Cc1ccc(N)cc1Cl
inactive: [7] inactive; negative | [2] inactive; negative | Test System: AMES SALMONELLA TYPHIMURIUM, Strain/Indicator: TA100, Metabolic Activation: NONE, Method: STANDARD PLATE inactive; negative | [4] inactive; negative | Test System: AMES SALMONELLA TYPHIMURIUM, Strain/Indicator: TA1535, Metabolic Activation: NONE, Method: STANDARD PLATE inactive; negative | Test System: AMES SALMONELLA TYPHIMURIUM, Strain/Indicator: TA1535, Metabolic Activation: RAT, LIVER, S-9, AROCLOR 1254, Method: STANDARD PLATE inactive; negative | Test System: AMES SALMONELLA TYPHIMURIUM, Strain/Indicator: TA1537, Metabolic Activation: NONE, Method: STANDARD PLATE inactive; negative | Test System: AMES SALMONELLA TYPHIMURIUM, Strain/Indicator: TA1537, Metabolic Activation: RAT, LIVER, S-9, AROCLOR 1254, Method: STANDARD PLATE inactive; negative | Test System: AMES SALMONELLA TYPHIMURIUM, Strain/Indicator: TA1538, Metabolic Activation: NONE, Method: STANDARD PLATE inactive; negative | Test System: AMES SALMONELLA TYPHIMURIUM, Strain/Indicator: TA1538, Metabolic Activation: RAT, LIVER, S-9, AROCLOR 1254, Method: STANDARD PLATE inactive; negative | Test System: CHINESE HAMSTER OVARY, Strain/Indicator: CHO-K1-BH4 (HPRT)/6-THIOGUANINE, Metabolic Activation: NONE inactive; negative | Test System: CHINESE HAMSTER OVARY, Strain/Indicator: CHO-K1-BH4 (HPRT)/6-THIOGUANINE, Metabolic Activation: RAT, LIVER, S-9, AROCLOR 1254 inactive; negative

Cc1c(F)c(N2CCNC(C)C2)cc2c1c(=O)c(C(=O)O)cn2C1CC1 (centres undefined)
inactive: [1] inactive; negative | Test System: AMES SALMONELLA TYPHIMURIUM, Strain/Indicator: TA98, Metabolic Activation: RAT, LIVER, S-9, PHENOBARBITAL AND 5,6-BENZOFLAVONE, Method: PREINCUBATION inactive; negative | [3] inactive; negative | Test System: AMES SALMONELLA TYPHIMURIUM, Strain/Indicator: TA100, Metabolic Activation: RAT, LIVER, S-9, PHENOBARBITAL AND 5,6-BENZOFLAVONE, Method: PREINCUBATION inactive; negative | [5] inactive; negative | Test System: AMES SALMONELLA TYPHIMURIUM, Strain/Indicator: TA1535, Metabolic Activation: RAT, LIVER, S-9, PHENOBARBITAL AND 5,6-BENZOFLAVONE, Method: PREINCUBATION inactive; negative | Test System: AMES SALMONELLA TYPHIMURIUM, Strain/Indicator: TA1537, Metabolic Activation: NONE, Method: PREINCUBATION inactive; negative | Test System: AMES SALMONELLA TYPHIMURIUM, Strain/Indicator: TA1537, Metabolic Activation: RAT, LIVER, S-9, PHENOBARBITAL AND 5,6-BENZOFLAVONE, Method: PREINCUBATION inactive; negative | Test System: CHINESE HAMSTER V-79, Strain/Indicator: V-79 (HGPRT)/6-THIOGUANINE, Metabolic Activation: NONE inactive; negative | Test System: CHINESE HAMSTER V-79, Strain/Indicator: V-79 (HGPRT)/6-THIOGUANINE, Metabolic Activation: RAT, LIVER, S-9, PHENOBARBITAL AND 5,6-BENZOFLAVONE inactive; negative | Test System: E. COLI, Strain/Indicator: WP2 UVRA, Metabolic Activation: NONE, Method: PREINCUBATION inactive; negative | Test System: E. COLI, Strain/Indicator: WP2 UVRA, Metabolic Activation: RAT, LIVER, S-9, PHENOBARBITAL AND 5,6-BENZOFLAVONE, Method: PREINCUBATION inactive; negative

O[C@H]1C=Cc2c(ccc3c4c5c(cccc5cc23)C=C4)[C@@H]1O
inactive: [7] inactive; negative
active: Test System: AMES SALMONELLA TYPHIMURIUM, Strain/Indicator: TA98, Metabolic Activation: RAT, LIVER, S-9, AROCLOR 1254 (0.4, 0.8, 1.15 OR 1.5 MG/PLATE), Method: STANDARD PLATE active; positive | [2] active; positive

CC1(C)CCC2(C(=O)OC3OC(CO)C(O)C(O)C3O)CCC3(CO)C(=CCC4C5(C)CC(O)C(O)C(C)(C(=O)OC6OC(CO)C(O)C(O)C6O)C5CCC43C)C2C1 (centres undefined)
inactive: End Point: In vivo micronucleus, Test System: Bone marrow polychromatic erythrocytes, Species: Mouse, Strain/Sex: C57BL/6J/Male, Route: Intraperitoneal inactive; negative; protective when coadministered with gamma radiation | [6] inactive; negative. reevaluation of results: negative | Test System: MOUSE LYMPHOMA, Strain/Indicator: L5178Y (TK+/TK-), Metabolic Activation: RAT, LIVER, S-9, AROCLOR 1254, Method: SUSPENSION/PLATE inactive; negative. reevaluation of results: negative
